Reference: US7612064B2, “Sulfopyrroles” (Takeda Pharmaceutical Company Limited, priority 2003, dated 2009)

Experiments:
[1] = system: HeLa; test: MTS proliferation assay; type: cell-based, human; settings: 72 h
Procedure, shortened: (§1)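 Four-point treatment (0.3–10 μM final) ran 72 h in complete medium, with the compound-containing addition holding no more than 5% DMSO. Metabolic activity was then developed with MTS reagent over 3 h and quantified by absorbance (492 nm).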

[2] = system: Jurkat; test: MTS proliferation assay; type: cell-based, human; settings: 72 h
Procedure, shortened: as §1

[3] = Hoechst 33342 nuclear staining; type: cell-based; settings: for Hoechst 33342 nuclear staining score, H460: H460 cells; for Hoechst 33342 nuclear staining score, HeLa: HeLa cells; for Hoechst 33342 nuclear staining score, Jily: Jily cells; for Hoechst 33342 nuclear staining score, Jurkat: Jurkat cells; for Hoechst 33342 nuclear staining score, MRC5: MRC5 cells;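 on all read-outs here: apoptotic nuclei scored 0 none 1 weak under 50% of cells 2 strong over 50% of cells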
Procedure, shortened: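 After a further 30 min incubation, plates were inspected on a standard inverted fluorescence microscope. The fraction of apoptotic nuclei and other apoptosis-specific morphology were scored as 0 for no activity, 1 for weak activity in less than 50% of the cells, and 2 for strong activity in more than 50% of the cells.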

[4] = system: Jily; test: MTS proliferation assay; type: cell-based; settings: 72 h
Procedure, shortened: as §1

[5] = system: MRC5; test: MTS proliferation assay; type: cell-based; settings: MRC5, 72 h
Procedure, shortened: as §1

| Structure (SMILES) | Hoechst 33342 nuclear staining score, H460 ([3]; conc 0.1) | Hoechst 33342 nuclear staining score, H460 ([3]; conc 0.3) | Hoechst 33342 nuclear staining score, H460 ([3]; conc 1) | Hoechst 33342 nuclear staining score, H460 ([3]; conc 3) | Hoechst 33342 nuclear staining score, HeLa ([3]; conc 0.1) | Hoechst 33342 nuclear staining score, HeLa ([3]; conc 0.3) | Hoechst 33342 nuclear staining score, HeLa ([3]; conc 1) | Hoechst 33342 nuclear staining score, HeLa ([3]; conc 3) | Hoechst 33342 nuclear staining score, Jily ([3]; conc 0.1) | Hoechst 33342 nuclear staining score, Jily ([3]; conc 0.3) | Hoechst 33342 nuclear staining score, Jily ([3]; conc 1) | Hoechst 33342 nuclear staining score, Jily ([3]; conc 3) | Hoechst 33342 nuclear staining score, Jurkat ([3]; conc 0.1) | Hoechst 33342 nuclear staining score, Jurkat ([3]; conc 0.3) | Hoechst 33342 nuclear staining score, Jurkat ([3]; conc 1) | Hoechst 33342 nuclear staining score, Jurkat ([3]; conc 3) | Hoechst 33342 nuclear staining score, MRC5 ([3]; conc 0.1) | Hoechst 33342 nuclear staining score, MRC5 ([3]; conc 0.3) | Hoechst 33342 nuclear staining score, MRC5 ([3]; conc 1) | Hoechst 33342 nuclear staining score, MRC5 ([3]; conc 3) | other results |
| --- | --- | --- | --- | --- | --- | --- | --- | --- | --- | --- | --- | --- | --- | --- | --- | --- | --- | --- | --- | --- | --- |
| COc1ccc(S(=O)(=O)n2cc(-c3ccc(N)nc3)cc2-c2ccccc2OC)cc1 [Example 103] | 0 | 0 | 0 | 2 (strong activity comprising more than 50% of the cells) | 0 | 0 | 0 | 2 (strong activity comprising more than 50% of the cells) | 0 | 0 | 2 (strong activity comprising more than 50% of the cells) | 2 (strong activity comprising more than 50% of the cells) | 0 | 0 | 2 (strong activity comprising more than 50% of the cells) | 2 (strong activity comprising more than 50% of the cells) | 0 | 0 | 0 | 1 (weak activity comprising less than 50% of the cells) | IC50 [1]: > 1 µM; IC50 [2]: < 1 µM; Hoechst 33342 nuclear staining score, PBLs ([3]; conc 0.1): 0; Hoechst 33342 nuclear staining score, PBLs ([3]; conc 0.3): 0; Hoechst 33342 nuclear staining score, PBLs ([3]; conc 1): 0; Hoechst 33342 nuclear staining score, PBLs ([3]; conc 3): 0; IC50 [4]: < 1 µM; IC50 [5]: > 1 µM |
| COc1ccc(S(=O)(=O)n2cc(-c3cncc(C(N)=O)c3)cc2-c2cc(OC)c(OC)c(OC)c2)cc1 [Example 104, 4-(3-Aminocarbonylpyrid-5-yl)-1-p-methoxyphenylsulfonyl-2-(3,4,5-trimethoxyphenyl)-pyrrole] | 0 | 2 (strong activity comprising more than 50% of the cells) | 2 (strong activity comprising more than 50% of the cells) | 2 (strong activity comprising more than 50% of the cells) | 0 | 2 (strong activity comprising more than 50% of the cells) | 2 (strong activity comprising more than 50% of the cells) | 2 (strong activity comprising more than 50% of the cells) | 0 | 2 (strong activity comprising more than 50% of the cells) | 2 (strong activity comprising more than 50% of the cells) | 2 (strong activity comprising more than 50% of the cells) | 0 | 2 (strong activity comprising more than 50% of the cells) | 2 (strong activity comprising more than 50% of the cells) | 2 (strong activity comprising more than 50% of the cells) | 0 | 1 (weak activity comprising less than 50% of the cells) | 2 (strong activity comprising more than 50% of the cells) | 2 (strong activity comprising more than 50% of the cells) | IC50 ([1]; Homo sapiens): < 1 µM; IC50 ([2]; Homo sapiens): < 0.2 µM; Hoechst 33342 nuclear staining score, PBLs ([3]; conc 0.1): 0; Hoechst 33342 nuclear staining score, PBLs ([3]; conc 0.3): 0; Hoechst 33342 nuclear staining score, PBLs ([3]; conc 1): 0; Hoechst 33342 nuclear staining score, PBLs ([3]; conc 3): 0; IC50 [4]: < 0.2 µM; IC50 ([5]; Homo sapiens): < 0.2 µM |
| COc1ccc(S(=O)(=O)n2cc(-c3cncc(C(N)=O)c3)cc2-c2cc(OC)ccc2OC)cc1 [Example 105] | 0 | 0 | 0 | 2 (strong activity comprising more than 50% of the cells) | 0 | 0 | 0 | 2 (strong activity comprising more than 50% of the cells) | 0 | 0 | 2 (strong activity comprising more than 50% of the cells) | 2 (strong activity comprising more than 50% of the cells) | 0 | 0 | 2 (strong activity comprising more than 50% of the cells) | 2 (strong activity comprising more than 50% of the cells) | 0 | 0 | 0 | 1 (weak activity comprising less than 50% of the cells) | IC50 [1]: > 1 µM; IC50 [2]: < 1 µM; Hoechst 33342 nuclear staining score, PBLs ([3]; conc 0.1): 0; Hoechst 33342 nuclear staining score, PBLs ([3]; conc 0.3): 0; Hoechst 33342 nuclear staining score, PBLs ([3]; conc 1): 0; Hoechst 33342 nuclear staining score, PBLs ([3]; conc 3): 0; IC50 [4]: < 1 µM; IC50 [5]: > 1 µM |
| COc1ccc(S(=O)(=O)n2cc(-c3cncc(C(N)=O)c3)cc2-c2ccc(OC)cc2OC)cc1 [Example 106] | 0 | 0 | 1 (weak activity comprising less than 50% of the cells) | 2 (strong activity comprising more than 50% of the cells) | 0 | 0 | 1 (weak activity comprising less than 50% of the cells) | 2 (strong activity comprising more than 50% of the cells) | 0 | 0 | 1 (weak activity comprising less than 50% of the cells) | 2 (strong activity comprising more than 50% of the cells) | 0 | 0 | 2 (strong activity comprising more than 50% of the cells) | 2 (strong activity comprising more than 50% of the cells) | 0 | 0 | 0 | 1 (weak activity comprising less than 50% of the cells) | IC50 [1]: > 1 µM; IC50 [2]: > 1 µM; Hoechst 33342 nuclear staining score, PBLs ([3]; conc 0.1): 0; Hoechst 33342 nuclear staining score, PBLs ([3]; conc 0.3): 0; Hoechst 33342 nuclear staining score, PBLs ([3]; conc 1): 0; Hoechst 33342 nuclear staining score, PBLs ([3]; conc 3): 0; IC50 [4]: > 1 µM; IC50 [5]: > 1 µM |
| COc1ccc(S(=O)(=O)n2cc(-c3cncc(C(N)=O)c3)cc2-c2ccccc2OC)cc1 [Example 107] | 0 | 0 | 1 (weak activity comprising less than 50% of the cells) | 2 (strong activity comprising more than 50% of the cells) | 0 | 0 | 0 | 2 (strong activity comprising more than 50% of the cells) | 0 | 0 | 2 (strong activity comprising more than 50% of the cells) | 2 (strong activity comprising more than 50% of the cells) | 0 | 0 | 2 (strong activity comprising more than 50% of the cells) | 2 (strong activity comprising more than 50% of the cells) | 0 | 0 | 0 | 0 | IC50 [1]: > 1 µM; IC50 [2]: < 1 µM; Hoechst 33342 nuclear staining score, PBLs ([3]; conc 0.1): 0; Hoechst 33342 nuclear staining score, PBLs ([3]; conc 0.3): 0; Hoechst 33342 nuclear staining score, PBLs ([3]; conc 1): 0; Hoechst 33342 nuclear staining score, PBLs ([3]; conc 3): 0; IC50 [4]: < 1 µM; IC50 [5]: > 1 µM |
